# According to US20230051563A1, “NON-ELICITED DEDIFFERENTIATED LAVANDULA ANGUSTIFOLIA PLANT CELLS, EXTRACTS THEREOF AND COSMETIC USES THEREOF” (L'OREAL, priority 2019, published 2023):
# System: isolated stratum corneum
# Experiment: Moisturizing potential on isolated stratum corneum by measurement with a corneometer
# Settings: 5% by weight in 80%/20% water/n-propanol, 10 μL/cm2 on SC, 4 hours, 75% relative humidity, 25° C.
# Protocol: A test was performed to evaluate the moisturizing potential of the extracts of the invention formulated in a vehicle (80%/20% water/n-propanol) in an amount of 5% by weight relative to the total weight of the composition. The technique makes it possible to measure the dielectric capacitance of the stratum corneum (SC), which depends on the mean dielectric permittivity value of the tissue. The dielectric permittivity varies greatly with the amount of water contained in the SC. The SC samples are conditioned at 75% relative humidity and at 25° C. before/during the measurements and the treatment. The capacitance measurement is performed using a CorneometerTM (Courage & Khazaka, Germany). […] Using at least two different batches of SC, four to five SC samples are measured per treatment. The variation in the corneometer signal (HCM) after treatment is calculated first for each SC sample: […]0). The mean of the DHCMi(vehicle) variations is then calculated for the control samples (treated with the vehicle): this mean value is subtracted from all the DHCMi(active agent) and DHCMi(positive control) variations to correct for the systematic bias. […]
compound,measurement,value
"OCC(O)CO [Glycerol, glycerol]","% norm (corneometer signal variation, vehicle-corrected, normalized to glycerol)",100%
